# Test results: ChEMBL document CHEMBL1201861, “Genomics of Drug Sensitity in Cancer screening data, Wellcome Trust Sanger Institute”
# pIC50: −log10 of the molar value.
# Tested on: RO82-W-1;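 further: growth inhibition of human RO82-W-1 cells, measured with a cell viability assay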
# Assay: cells
# Format: functional, cell-based, Homo sapiens
# Conditions: Homo sapiens, RO82-W-1
row,Compound,pIC50
1,CC1(C)CNc2cc(NC(=O)c3cccnc3NCc3ccncc3)ccc21 [MOTESANIB],< 5.70

# Tested on: HSC-2;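 further: growth inhibition of human HSC-2 cells, read out by a cell viability assay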
# Assay: cells
# Format: functional, cell-based, Homo sapiens
# Conditions: Homo sapiens, HSC-2
# Description: SANGER: Inhibition of human HSC-2 cell growth in a cell viability assay.
row,Compound,pIC50
1,CC1(C)CNc2cc(NC(=O)c3cccnc3NCc3ccncc3)ccc21 [MOTESANIB],< 5.70

# Tested on: NB14;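 further: growth inhibition of NB14 cells measured with a cell viability assay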
# Assay: cells
# Format: functional, cell-based, Homo sapiens
# Conditions: Homo sapiens, NB14
# Description: SANGER: Inhibition of human NB14 cell growth in a cell viability assay.
row,Compound,pIC50
1,CC1(C)CNc2cc(NC(=O)c3cccnc3NCc3ccncc3)ccc21 [MOTESANIB],< 5.70

# Tested on: NCI-H596;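 further: growth inhibition of NCI-H596 cells, read out with a cell viability assay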
# Assay: cells
# Format: functional, cell-based, Homo sapiens
# Conditions: Homo sapiens, NCI-H596
# Description: SANGER: Inhibition of human NCI-H596 cell growth in a cell viability assay.
row,Compound,pIC50
1,CC1(C)CNc2cc(NC(=O)c3cccnc3NCc3ccncc3)ccc21 [MOTESANIB],< 5.70

# Tested on: NCI-H1573;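 further: growth inhibition of NCI-H1573 cells, read out with a cell viability assay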
# Assay: cells
# Format: functional, cell-based, Homo sapiens
# Conditions: Homo sapiens, NCI-H1573
# Description: SANGER: Inhibition of human NCI-H1573 cell growth in a cell viability assay.
row,Compound,pIC50
1,CC1(C)CNc2cc(NC(=O)c3cccnc3NCc3ccncc3)ccc21 [MOTESANIB],< 5.70

# Tested on: SAS;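 further: growth inhibition of SAS cells, read out with a cell viability assay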
# Assay: cells
# Format: functional, cell-based, Homo sapiens
# Conditions: Homo sapiens, SAS
# Description: SANGER: Inhibition of human SAS cell growth in a cell viability assay.
row,Compound,pIC50
1,CC1(C)CNc2cc(NC(=O)c3cccnc3NCc3ccncc3)ccc21 [MOTESANIB],< 5.70

# Tested on: RMG-I;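 further: growth inhibition of human RMG-I cells, read out with a cell viability assay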
# Assay: cells
# Format: functional, cell-based, Homo sapiens
# Conditions: Homo sapiens, RMG-I
# Description: SANGER: Inhibition of human RMG-I cell growth in a cell viability assay.
row,Compound,pIC50
1,CC1(C)CNc2cc(NC(=O)c3cccnc3NCc3ccncc3)ccc21 [MOTESANIB],< 5.70

# Tested on: MFE-280;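 further: growth inhibition of MFE-280 cells, determined with a cell viability readout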
# Assay: cells
# Format: functional, cell-based, Homo sapiens
# Conditions: Homo sapiens, MFE-280
# Description: SANGER: Inhibition of human MFE-280 cell growth in a cell viability assay.
row,Compound,pIC50
1,CC1(C)CNc2cc(NC(=O)c3cccnc3NCc3ccncc3)ccc21 [MOTESANIB],< 5.70

# Tested on: NCI-H661;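 further: cell viability assay read-out, IC50 being the concentration that inhibits growth of the cells by half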
# Assay: cells
# Format: functional, cell-based, Homo sapiens
# Conditions: Homo sapiens, NCI-H661
# Description: SANGER: Inhibition of human NCI-H661 cell growth in a cell viability assay.
row,Compound,pIC50
1,CC1(C)CNc2cc(NC(=O)c3cccnc3NCc3ccncc3)ccc21 [MOTESANIB],< 5.70

# Tested on: COR-L105;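 further: cell growth inhibition determined with a viability assay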
# Assay: cells
# Format: functional, cell-based, Homo sapiens
# Conditions: Homo sapiens, COR-L105
# Description: SANGER: Inhibition of human COR-L105 cell growth in a cell viability assay.
row,Compound,pIC50
1,CC1(C)CNc2cc(NC(=O)c3cccnc3NCc3ccncc3)ccc21 [MOTESANIB],< 5.70

# Tested on: HT-1376
# Assay: cells
# Format: functional, cell-based, Homo sapiens
# Conditions: Homo sapiens, HT-1376
# Description: SANGER: Inhibition of human HT-1376 cell growth in a cell viability assay.
row,Compound,pIC50
1,CC1(C)CNc2cc(NC(=O)c3cccnc3NCc3ccncc3)ccc21 [MOTESANIB],< 5.70

# Tested on: P12-Ichikawa
# Assay: cells
# Format: functional, cell-based, Homo sapiens
# Conditions: Homo sapiens, P12-Ichikawa
row,Compound,pIC50
1,CC1(C)CNc2cc(NC(=O)c3cccnc3NCc3ccncc3)ccc21 [MOTESANIB],< 5.70

# Tested on: UMC-11;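 further: growth inhibition of UMC-11 cells, read out with a cell viability assay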
# Assay: cells
# Format: functional, cell-based, Homo sapiens
# Conditions: Homo sapiens, UMC-11
# Description: SANGER: Inhibition of human UMC-11 cell growth in a cell viability assay.
row,Compound,pIC50
1,CC1(C)CNc2cc(NC(=O)c3cccnc3NCc3ccncc3)ccc21 [MOTESANIB],< 5.70

# Tested on: SK-N-AS;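 further: growth inhibition of human SK-N-AS cells, measured with a cell viability assay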
# Assay: cells
# Format: functional, cell-based, Homo sapiens
# Conditions: Homo sapiens, SK-N-AS
# Description: SANGER: Inhibition of human SK-N-AS cell growth in a cell viability assay.
row,Compound,pIC50
1,CC1(C)CNc2cc(NC(=O)c3cccnc3NCc3ccncc3)ccc21 [MOTESANIB],< 5.70

# Tested on: BEN;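 further: growth inhibition of the BEN cell line, read out with a cell viability assay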
# Assay: cells
# Format: functional, cell-based, Homo sapiens
# Conditions: Homo sapiens, BEN
# Description: SANGER: Inhibition of human BEN cell growth in a cell viability assay.
row,Compound,pIC50
1,CC1(C)CNc2cc(NC(=O)c3cccnc3NCc3ccncc3)ccc21 [MOTESANIB],< 5.70

# Tested on: AGS;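 further: growth inhibition of AGS cells, determined with a cell viability assay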
# Assay: cells
# Format: functional, cell-based, Homo sapiens
# Conditions: Homo sapiens, AGS
# Description: SANGER: Inhibition of human AGS cell growth in a cell viability assay.
row,Compound,pIC50
1,CC1(C)CNc2cc(NC(=O)c3cccnc3NCc3ccncc3)ccc21 [MOTESANIB],< 5.70

# Tested on: T84;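 further: growth inhibition measured with a cell viability readout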
# Assay: cells
# Format: functional, cell-based, Homo sapiens
# Conditions: Homo sapiens, T84
# Description: SANGER: Inhibition of human T84 cell growth in a cell viability assay.
row,Compound,pIC50
1,CC1(C)CNc2cc(NC(=O)c3cccnc3NCc3ccncc3)ccc21 [MOTESANIB],< 5.70

# Tested on: CAL-72;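 further: cell viability assay measuring inhibition of proliferation in the CAL-72 cell line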
# Assay: cells
# Format: functional, cell-based, Homo sapiens
# Conditions: Homo sapiens, CAL-72
# Description: SANGER: Inhibition of human CAL-72 cell growth in a cell viability assay.
row,Compound,pIC50
1,CC1(C)CNc2cc(NC(=O)c3cccnc3NCc3ccncc3)ccc21 [MOTESANIB],< 5.70

# Tested on: NCI-H810;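 further: IC50 reflects inhibition of cancer cell line growth, read out with a cell viability assay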
# Assay: cells
# Format: functional, cell-based, Homo sapiens
# Conditions: Homo sapiens, NCI-H810
# Description: SANGER: Inhibition of human NCI-H810 cell growth in a cell viability assay.
row,Compound,pIC50
1,CC1(C)CNc2cc(NC(=O)c3cccnc3NCc3ccncc3)ccc21 [MOTESANIB],< 5.70

# Tested on: AU565;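 further: cell viability assay measuring growth inhibition of human AU565 cells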
# Assay: cells
# Format: functional, cell-based, Homo sapiens
# Conditions: Homo sapiens, AU565
# Description: SANGER: Inhibition of human AU565 cell growth in a cell viability assay.
row,Compound,pIC50
1,CC1(C)CNc2cc(NC(=O)c3cccnc3NCc3ccncc3)ccc21 [MOTESANIB],< 5.70

# Tested on: BFTC-905
# Assay: cells
# Format: functional, cell-based, Homo sapiens
# Conditions: Homo sapiens, BFTC-905
# Description: SANGER: Inhibition of human BFTC-905 cell growth in a cell viability assay.
row,Compound,pIC50
1,CC1(C)CNc2cc(NC(=O)c3cccnc3NCc3ccncc3)ccc21 [MOTESANIB],< 5.70

# Tested on: HT55;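 further: cell viability readout measuring growth inhibition of human HT55 cells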
# Assay: cells
# Format: functional, cell-based, Homo sapiens
# Conditions: Homo sapiens, HT55
# Description: SANGER: Inhibition of human HT55 cell growth in a cell viability assay.
row,Compound,pIC50
1,CC1(C)CNc2cc(NC(=O)c3cccnc3NCc3ccncc3)ccc21 [MOTESANIB],< 5.70

# Tested on: NCI-H441;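 further: growth inhibition of NCI-H441 cells, read out with a cell viability assay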
# Assay: cells
# Format: functional, cell-based, Homo sapiens
# Conditions: Homo sapiens, NCI-H441
# Description: SANGER: Inhibition of human NCI-H441 cell growth in a cell viability assay.
row,Compound,pIC50
1,CC1(C)CNc2cc(NC(=O)c3cccnc3NCc3ccncc3)ccc21 [MOTESANIB],< 5.70

# Tested on: RPMI-7951
# Assay: cells
# Format: functional, cell-based, Homo sapiens
# Conditions: Homo sapiens, RPMI-7951
# Description: SANGER: Inhibition of human RPMI-7951 cell growth in a cell viability assay.
row,Compound,pIC50
1,CC1(C)CNc2cc(NC(=O)c3cccnc3NCc3ccncc3)ccc21 [MOTESANIB],< 5.70

# Tested on: BT-549
# Assay: cells
# Format: functional, cell-based, Homo sapiens
# Conditions: Homo sapiens, BT-549
# Description: SANGER: Inhibition of human BT-549 cell growth in a cell viability assay.
row,Compound,pIC50
1,CC1(C)CNc2cc(NC(=O)c3cccnc3NCc3ccncc3)ccc21 [MOTESANIB],< 5.70

# Tested on: NCI-H1792;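 further: growth inhibition of human NCI-H1792 cells, read out as cell viability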
# Assay: cells
# Format: functional, cell-based, Homo sapiens
# Conditions: Homo sapiens, NCI-H1792
# Description: SANGER: Inhibition of human NCI-H1792 cell growth in a cell viability assay.
row,Compound,pIC50
1,CC1(C)CNc2cc(NC(=O)c3cccnc3NCc3ccncc3)ccc21 [MOTESANIB],< 5.70

# Tested on: EPLC-272H
# Assay: cells
# Format: functional, cell-based, Homo sapiens
# Conditions: Homo sapiens, EPLC-272H
# Description: SANGER: Inhibition of human EPLC-272H cell growth in a cell viability assay.
row,Compound,pIC50
1,CC1(C)CNc2cc(NC(=O)c3cccnc3NCc3ccncc3)ccc21 [MOTESANIB],< 5.70

# Tested on: HT-29;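 further: growth inhibition of human HT-29 cells, read out by a cell viability assay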
# Assay: cells
# Format: functional, cell-based, Homo sapiens
# Conditions: Homo sapiens, HT-29
# Description: SANGER: Inhibition of human HT-29 cell growth in a cell viability assay.
row,Compound,pIC50
1,CC1(C)CNc2cc(NC(=O)c3cccnc3NCc3ccncc3)ccc21 [MOTESANIB],< 5.70

# Tested on: NCI-H2342;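 further: growth inhibition of the cancer cell line, determined with a cell viability assay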
# Assay: cells
# Format: functional, cell-based, Homo sapiens
# Conditions: Homo sapiens, NCI-H2342
# Description: SANGER: Inhibition of human NCI-H2342 cell growth in a cell viability assay.
row,Compound,pIC50
1,CC1(C)CNc2cc(NC(=O)c3cccnc3NCc3ccncc3)ccc21 [MOTESANIB],< 5.70

# Tested on: NCI-H1993;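 further: growth inhibition of the cancer cell line, assessed with a cell viability assay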
# Assay: cells
# Format: functional, cell-based, Homo sapiens
# Conditions: Homo sapiens, NCI-H1993
# Description: SANGER: Inhibition of human NCI-H1993 cell growth in a cell viability assay.
row,Compound,pIC50
1,CC1(C)CNc2cc(NC(=O)c3cccnc3NCc3ccncc3)ccc21 [MOTESANIB],< 5.70

# Tested on: HLE;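 further: growth inhibition of human HLE cells, read out by a cell viability assay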
# Assay: cells
# Format: functional, cell-based, Homo sapiens
# Conditions: Homo sapiens, HLE
# Description: SANGER: Inhibition of human HLE cell growth in a cell viability assay.
row,Compound,pIC50
1,CC1(C)CNc2cc(NC(=O)c3cccnc3NCc3ccncc3)ccc21 [MOTESANIB],< 5.70

# Tested on: SW1088;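 further: growth inhibition of human SW1088 cells, read out by a cell viability assay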
# Assay: cells
# Format: functional, cell-based, Homo sapiens
# Conditions: Homo sapiens, SW1088
# Description: SANGER: Inhibition of human SW1088 cell growth in a cell viability assay.
row,Compound,pIC50
1,CC1(C)CNc2cc(NC(=O)c3cccnc3NCc3ccncc3)ccc21 [MOTESANIB],< 5.70

# Tested on: UACC-62;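 further: growth inhibition of human UACC-62 cells, read out by a cell viability assay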
# Assay: cells
# Format: functional, cell-based, Homo sapiens
# Conditions: Homo sapiens, UACC-62
# Description: SANGER: Inhibition of human UACC-62 cell growth in a cell viability assay.
row,Compound,pIC50
1,CC1(C)CNc2cc(NC(=O)c3cccnc3NCc3ccncc3)ccc21 [MOTESANIB],< 5.70

# Tested on: CAMA-1;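 further: growth inhibition of CAMA-1 cells, read out with a cell viability assay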
# Assay: cells
# Format: functional, cell-based, Homo sapiens
# Conditions: Homo sapiens, CAMA-1
# Description: SANGER: Inhibition of human CAMA-1 cell growth in a cell viability assay.
row,Compound,pIC50
1,CC1(C)CNc2cc(NC(=O)c3cccnc3NCc3ccncc3)ccc21 [MOTESANIB],< 5.70

# Tested on: SW948;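 further: growth inhibition of SW948 cells, read out with a cell viability assay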
# Assay: cells
# Format: functional, cell-based, Homo sapiens
# Conditions: Homo sapiens, SW948
# Description: SANGER: Inhibition of human SW948 cell growth in a cell viability assay.
row,Compound,pIC50
1,CC1(C)CNc2cc(NC(=O)c3cccnc3NCc3ccncc3)ccc21 [MOTESANIB],< 5.70

# Tested on: NCI-H2122;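 further: growth inhibition of the cells, read out with a cell viability assay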
# Assay: cells
# Format: functional, cell-based, Homo sapiens
# Conditions: Homo sapiens, NCI-H2122
# Description: SANGER: Inhibition of human NCI-H2122 cell growth in a cell viability assay.
row,Compound,pIC50
1,CC1(C)CNc2cc(NC(=O)c3cccnc3NCc3ccncc3)ccc21 [MOTESANIB],< 5.70

# Tested on: SK-LU-1;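 further: cell viability assay measuring growth inhibition of human SK-LU-1 cells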
# Assay: cells
# Format: functional, cell-based, Homo sapiens
# Conditions: Homo sapiens, SK-LU-1
# Description: SANGER: Inhibition of human SK-LU-1 cell growth in a cell viability assay.
row,Compound,pIC50
1,CC1(C)CNc2cc(NC(=O)c3cccnc3NCc3ccncc3)ccc21 [MOTESANIB],< 5.70

# Tested on: Calu-3;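 further: growth inhibition of human Calu-3 cells, determined with a cell viability assay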
# Assay: cells
# Format: functional, cell-based, Homo sapiens
# Conditions: Homo sapiens, Calu-3
# Description: SANGER: Inhibition of human Calu-3 cell growth in a cell viability assay.
row,Compound,pIC50
1,CC1(C)CNc2cc(NC(=O)c3cccnc3NCc3ccncc3)ccc21 [MOTESANIB],< 5.70

# Tested on: JEG-3;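 further: growth inhibition of human JEG-3 cells, read out with a cell viability assay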
# Assay: cells
# Format: functional, cell-based, Homo sapiens
# Conditions: Homo sapiens, JEG-3
# Description: SANGER: Inhibition of human JEG-3 cell growth in a cell viability assay.
row,Compound,pIC50
1,CC1(C)CNc2cc(NC(=O)c3cccnc3NCc3ccncc3)ccc21 [MOTESANIB],< 5.70

# Tested on: D-423MG
# Assay: cells
# Format: functional, cell-based, Homo sapiens
# Conditions: Homo sapiens, D-423MG
# Description: SANGER: Inhibition of human D-423MG cell growth in a cell viability assay.
row,Compound,pIC50
1,CC1(C)CNc2cc(NC(=O)c3cccnc3NCc3ccncc3)ccc21 [MOTESANIB],< 5.70
